The source of these data is US20240025919A1, “AZA-TETRACYCLIC OXAZEPINE COMPOUNDS AND USES THEREOF” (Genentech, Inc., priority 2022, published 2024).

Experiment [1] deals with KRAS G12D (Homo sapiens (Human), UniProt P01116, G12D). Briefly: KRAS G12D LoEnz Biochemical Assay, BODIPY-GDP Exchange TR-FRET (SOS1-mediated nucleotide exchange). Conditions: read-out: KRas (G12D) GDP HTRF IC50.
For experiment [2], the target named is KRAS WT (Homo sapiens (Human), UniProt P01116). The experiment can be described thus: KRAS WT Biochemical Assay, BODIPY-GDP Exchange TR-FRET (Example 502; 0.06 nM KRAS WT, 15 nM GDP, 300 nM SOS1, 120-minute incubation). Conditions: read-out: KRas HTRF IC50. In outline: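 Biotin-tagged recombinant KRAS WT (0.06 nM) preloaded with 15 nM GDP and Tb-streptavidin, 10 min RT, then exchange started with 300 nM SOS1 plus 300 nM BODIPY-GDP in HEPES pH 7.5 buffer with MgCl2. TR-FRET 520/490 ratio read after 120 min; normalized to DMSO and full-inhibition control; IC50 from 4-parameter fit.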
KRAS WT, sequence (P01116-2 other isoform, or with tags, fused parts or gaps): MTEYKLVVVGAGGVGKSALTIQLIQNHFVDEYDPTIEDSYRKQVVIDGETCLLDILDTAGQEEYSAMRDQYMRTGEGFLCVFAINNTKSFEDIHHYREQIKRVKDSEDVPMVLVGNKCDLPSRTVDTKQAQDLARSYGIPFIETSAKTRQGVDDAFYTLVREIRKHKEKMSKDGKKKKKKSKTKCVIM

In experiment [3] the test system is HPAC (homozygous mutant KRAS G12D human pancreatic cell line). Briefly: KRAS 3D-Cell Proliferation Assay, HPAC (CellTiter-Glo 3D, 7 days). Conditions: HPAC 3D culture, read-out: Prolif HPAC 3D ATP IC50. The class given is cell-based. The protocol:
(§1) Example 503: KRAS 3D-Cell Proliferation Assays. Cellular potencies of compounds are assessed by evaluating inhibition of proliferation in 3D cultures of homozygous mutant KRAS G12D human pancreatic cell lines (AsPC-1 and HPAC) as compared to a KRAS wild type human lung adenocarcinoma cell line (PC-9 and/or H1975). Cells are seeded into 384-well black round-bottom, ultra-low attachment assay plates in 50 uL cell growth medium (RPMI-1640 with 10% fetal bovine serum and 2 mM L-glutamine). After overnight incubation at 37° C. and 5% CO2, compounds solubilized in DMSO are added as dilution series to the wells in a total volume of 150 nL (0.3% DMSO final). The cells are incubated for 7 days at 37° C. and 5% CO2. Cell proliferation is quantitated by addition of 40 uL/well of CellTiter-GloO 3D (Promega), and the well contents are mixed 20× at high speed using liquid handling automation workstation (Bravo with 384-well head) and centrifuged at 1500 rpm for 2 minutes to eliminate bubbles. This reagent in combination with mechanical disruption releases the cellular ATP to promote activity in a luciferase-based enzyme/substrate chemiluminescent detection system. After a 30-minute incubation under ambient conditions with shaking and an additional 10 minutes without shaking, the luminescence is read on a plate reader (e.g. EnVision [PerkinElmer]). The results are normalized to percent inhibition based on the following control samples: DMSO (0% inhibition) and 1 uM staurosporine (100% inhibition). The normalized luminescence results are plotted against compound concentration, and the data are fit to a 4-parameter Hill equation to determine the IC50 values.

The subject of experiment [4] is H1975 (KRAS wild type human lung adenocarcinoma cell line). The experiment can be described thus: KRAS 3D-Cell Proliferation Assay, H1975 (CellTiter-Glo 3D, 7 days). The class given is cell-based. Conditions: H1975 3D culture, read-out: Prolif H1975 3D ATP IC50. The method, then:
as §1

Like-named read-outs stand apart in the source and are kept apart here.

KRAS G12D, sequence (P01116-2 other isoform, or with tags, fused parts or gaps G12D): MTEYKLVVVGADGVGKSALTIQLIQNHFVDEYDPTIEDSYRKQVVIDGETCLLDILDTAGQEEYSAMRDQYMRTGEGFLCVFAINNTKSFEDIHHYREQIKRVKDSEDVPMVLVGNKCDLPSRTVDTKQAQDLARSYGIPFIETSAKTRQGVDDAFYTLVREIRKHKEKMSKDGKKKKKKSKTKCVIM

Turning to `Cc1c(F)c(N)cc(-c2nc3c4c(nc(OC[C@@]56CCCN5[C@@H](C(F)F)CC6)nc4c2F)N2C[C@H]4CC[C@H](N4)[C@H]2[C@H](C)O3)c1C(F)(F)F` (single isomer, unassigned) [130 (isomer 2)], the IC50 came out at 0.92 nM in experiment [1], 174 nM in experiment [2], 15.8 nM in experiment [3] and 2900 nM in experiment [4].

In the case of `Cc1c(F)c(N)cc(-c2nc3c4c(nc(OC[C@H]5CC[C@@H]6CN(C)C(=O)CN56)nc4c2F)N2C[C@H]4CC[C@H](N4)[C@H]2[C@H](C)O3)c1C(F)(F)F` (single isomer, unassigned) [131 (isomer 1)], the half-maximal inhibitory concentration (IC50) in experiment [1] stood at 13.9 nM; in experiment [2], 2530 nM; in experiment [3] it was 1430 nM; in experiment [4] it was 20000 nM.

Consider `Cc1c(F)c(N)cc(-c2nc3c4c(nc(OC[C@H]5CC[C@@H]6CN(C)C(=O)CN56)nc4c2F)N2C[C@H]4CC[C@H](N4)[C@H]2[C@H](C)O3)c1C(F)(F)F` (single isomer, unassigned) [131 (isomer 2)], for which the IC50 in experiment [1] stood at 1.31 nM; in experiment [2], 293 nM; in experiment [3], 342 nM; in experiment [4] it was 20000 nM.

With `Cc1c(F)c(N)cc(-c2nc3c4c(nc(OC[C@H]5CC[C@@H]6CN(C)C(=O)CN56)nc4c2F)N2C[C@H]4CC[C@H](N4)[C@H]2[C@H](C)O3)c1C(F)(F)F` (single isomer, unassigned) [131 (isomer 3)], the IC50 in experiment [1] was 2.07 nM; in experiment [2], 249 nM; in experiment [3], 77.4 nM; in experiment [4], 8850 nM.

Consider `Cc1c(F)c(N)cc(-c2nc3c4c(nc(OC[C@@H]5CCC6C[C@@H](C(=O)N(C)C)CCN65)nc4c2F)N2C[C@H]4CC[C@H](N4)[C@H]2[C@H](C)O3)c1C(F)(F)F` (single isomer, unassigned) [133 (isomer 2)], for which the IC50 in experiment [1] was determined as 0.15 nM; in experiment [2], 14.4 nM; in experiment [3] (Homo sapiens, HPAC, 168 h), 22.4 nM; in experiment [4] (Homo sapiens, NCI-H1975, 168 h), 1600 nM.

On to `Cc1c(F)c(N)cc(-c2nc3c4c(nc(OCC56CCCN5CCN(C)C6=O)nc4c2F)N2C[C@H]4CC[C@H](N4)[C@H]2[C@H](C)O3)c1C(F)(F)F` (single isomer, unassigned) [137 (isomer 2)], for which the IC50 stood at 2.34 nM in experiment [1]; 454 nM in experiment [2]; 193 nM in experiment [3] (Homo sapiens, HPAC, 168 h); 20000 nM in experiment [4] (Homo sapiens, NCI-H1975, 168 h).

With `Cc1c(F)c(N)cc(-c2nc3c4c(nc(OCC56CCCN5CC(F)C6F)nc4c2F)N2C[C@H]4CC[C@H](N4)[C@H]2[C@H](C)O3)c1C(F)(F)F` (single isomer, unassigned) [143 (isomer 2)], the IC50 in experiment [1] was found to be 0.26 nM; in experiment [2], 33.5 nM; in experiment [3] (Homo sapiens, HPAC, 168 h) it was 3.52 nM; in experiment [4] (Homo sapiens, NCI-H1975, 168 h), 1130 nM.

On to `Cc1c(F)c(N)cc(-c2nc3c4c(nc(OC[C@@H]5C[C@@H]6C[N@@]5CCO6)nc4c2F)N2C[C@H]4CC[C@H](N4)[C@H]2[C@H](C)O3)c1C(F)(F)F` (single isomer, unassigned) [151 (isomer 1)], for which the IC50 came to 1.84 nM in experiment [1]; 398 nM in experiment [2]; 323 nM in experiment [3] (Homo sapiens, HPAC, 168 h); 20000 nM in experiment [4] (Homo sapiens, NCI-H1975, 168 h).

For `Cc1c(F)c(N)cc(-c2nc3c4c(nc(OCC5C[C@@H]6C[N@@]5CCO6)nc4c2F)N2C[C@H]4CC[C@H](N4)[C@H]2[C@H](C)O3)c1C(F)(F)F` (single isomer, unassigned) [151 (isomer 2)], the IC50 in experiment [1] turned out to be 0.12 nM; in experiment [2], 25.5 nM; in experiment [3] (Homo sapiens, HPAC, 168 h) it was 8.04 nM; in experiment [4] (Homo sapiens, NCI-H1975, 168 h) it was 1690 nM.

With `Cc1c(F)c(N)cc(-c2nc3c4c(nc(OCC5CCC6CC(F)(F)CN56)nc4c2F)N2C[C@H]4CC[C@H](N4)[C@H]2[C@H](C)O3)c1C(F)(F)F` (single isomer, unassigned) [153 (isomer 1)], the IC50 in experiment [1] came out at 0.37 nM; in experiment [2], 90.9 nM; in experiment [3] it was 19 nM; in experiment [4] (Homo sapiens, NCI-H1975, 168 h) it was 4740 nM.

With `Cc1c(F)c(N)cc(-c2nc3c4c(nc(OCC5CCC6CC(F)(F)CN56)nc4c2F)N2C[C@H]4CC[C@H](N4)[C@H]2[C@H](C)O3)c1C(F)(F)F` (single isomer, unassigned) [153 (isomer 2)], the IC50 in experiment [1] came out at 0.32 nM; in experiment [2] it was 87.6 nM; in experiment [3], 13.4 nM; in experiment [4] it was 4180 nM.

`Cc1c(F)c(N)cc(-c2nc3c4c(nc(OCC5CCC6CC(F)(F)CN56)nc4c2F)N2C[C@H]4CC[C@H](N4)[C@H]2[C@H](C)O3)c1C(F)(F)F` (single isomer, unassigned) [153 (isomer 3)]: the IC50 came out at 0.55 nM in experiment [1], 125 nM in experiment [2], 32.9 nM in experiment [3] and 4490 nM in experiment [4].

On to `Cc1c(F)c(N)cc(-c2nc3c4c(nc(OC[C@@H]5C[C@H]6COCCN65)nc4c2F)N2C[C@H]4CC[C@H](N4)[C@H]2[C@H](C)O3)c1C(F)(F)F` (single isomer, unassigned) [159 (diast. 2)], for which the IC50 worked out at 0.23 nM in experiment [1]; 48.1 nM in experiment [2]; 23.8 nM in experiment [3] (Homo sapiens, HPAC, 168 h); 1240 nM in experiment [4] (Homo sapiens, NCI-H1975, 168 h).

Turning to `Cc1c(F)c(N)cc(-c2nc3c4c(nc(OC[C@]5(CN6C[C@H]7C[C@@H]6CO7)CC5(F)F)nc4c2F)N2C[C@H]4CC[C@H](N4)[C@H]2[C@H](C)O3)c1C(F)(F)F` (single isomer, unassigned) [166 a], the IC50 in experiment [1] came out at 0.1 nM; in experiment [2], 3.68 nM; in experiment [3] (Homo sapiens, HPAC, 168 h), 1.44 nM; in experiment [4], 1270 nM.

For `Cc1cc(N)c(F)c(-c2nc3c4c(ncnc4c2Cl)N2C[C@H]4CC[C@H](N4)[C@H]2[C@H](C)O3)c1C(F)(F)F` (single isomer, unassigned) [Compound 94], the IC50 was determined as 2300 nM in experiment [1], 200000 nM in experiment [2], 2230 nM in experiment [3] and 15200 nM in experiment [4].

With `Cc1c(F)c(N)cc(-c2nc3c4c(nc(OCC5CC(F)C6CCCN56)nc4c2F)N2C[C@H]4CC[C@H](N4)[C@H]2[C@H](C)O3)c1C(F)(F)F` (single isomer, unassigned) [Compound 160 (diast. 2)], the IC50 in experiment [1] was 0.12 nM; in experiment [2] it was 22.5 nM; in experiment [3] (Homo sapiens, HPAC, 168 h), 6.97 nM; in experiment [4] (Homo sapiens, NCI-H1975, 168 h), 755 nM.

In the case of `Cc1c(F)c(N)cc(-c2nc3c4c(nc(OC[C@]5(CN6C[C@H]7C[C@@H]6CO7)CC5(F)F)nc4c2F)N2C[C@H]4CC[C@H](N4)[C@H]2[C@H](C)O3)c1C(F)(F)F` [166 b, 5-((5S,5aS,6S,9R)-12-((1-(((1R,4R)-2-Oxa-5-azabicyclo[2.2.1]heptan-5-yl)methyl)-2,2-difluorocyclopropyl)methoxy)-1-fluoro-5-methyl-5a,6,7,8,9,10-hexahydro-5H-4-oxa-3,10a,11,13,14-pentaaza-6,9-methanonaphtho[1,8-ab]heptalen-2-yl)-2-fluoro-3-methyl-4-(trifluoromethyl)aniline], the IC50 worked out at 0.15 nM in experiment [1], 5.38 nM in experiment [2], 1.49 nM in experiment [3] and 402 nM in experiment [4].

In the case of `Cc1cc(N)c(F)c(-c2nc3c4c(ncnc4c2Cl)N2C[C@H]4CC[C@H](N4)[C@H]2[C@H](C)O3)c1C(F)(F)F` [Compound 93, 3-((5S,5aS,6S,9R)-1-chloro-5-methyl-5a,6,7,8,9,10-hexahydro-5H-4-oxa-3,10a,11,13,14-pentaaza-6,9-methanonaphtho[1,8-ab]heptalen-2-yl)-2-fluoro-5-methyl-4-(trifluoromethyl)aniline], the concentration for half-maximal inhibition (IC50) in experiment [1] amounted to 73.4 nM; in experiment [2], 14400 nM; in experiment [3] (Homo sapiens, HPAC, 168 h), 836 nM; in experiment [4] (Homo sapiens, NCI-H1975, 168 h), 20000 nM.

For the compound `Cc1c(F)c(N)cc(-c2nc3c4c(nc(OC[C@@]56CCCN5CC5(CC5(F)F)C6)nc4c2F)N2C[C@H]4CC[C@H](N4)[C@H]2[C@@H](C)O3)c1C(F)(F)F` (stereo partly shown) [compound 63], the IC50 in experiment [1] was 0.15 nM; in experiment [2], 21.7 nM; in experiment [3], 82.4 nM; in experiment [4], 20800 nM.
